According to US11779586B2, “Compounds comprising tricyclic heterocyclic compounds” (Convalife (Shanghai) Co. Limited, priority 2015, dated 2023):
Read-outs that look alike come from different tables or passages of the source.

What was measured:
p110δ/p110γ = experiment: HTRF biochemical assay, class I PI3K isoforms (Reaction Biology Corp.): fold selectivity p110δ/p110γ; details: fold form selectivity
p110β/p110α = experiment: HTRF biochemical assay, class I PI3K isoforms (Reaction Biology Corp.): fold selectivity p110β/p110α; details: fold form selectivity
Description: (§1) Fold form selectivity inhibition data against class I PI3K isoforms, as determined using a HTRF biochemical assay conducted at Reaction Biology Corp., is listed below.

p110β/p110γ = experiment: HTRF biochemical assay, class I PI3K isoforms (Reaction Biology Corp.): fold selectivity p110β/p110γ; details: fold form selectivity
Description: as §1

p110δ/p110α = experiment: HTRF biochemical assay, class I PI3K isoforms (Reaction Biology Corp.): fold selectivity p110δ/p110α; details: fold form selectivity
[1] = Rodent pharmacokinetics: oral bioavailability and clearance, plasma PK; type: in vivo, mouse
Protocol: Formulation: 10% DMSO, 90% Saline Dosing: 10 mg/kg P.O. and 5 mg/kg I.V.
• Species=male mouse; • Strain=Balb/c; • 18 male mice were divided into two groups Group 1 (3 mg/kg; I.V.), Group 2 (10 mg/kg; P.O.) with each group comprising nine mice; • Blood samples (approximately 60 μL) were collected from retro orbital plexus under light isoflurane anesthesia such that the samples were obtained at pre-dose, 0.08, 0.25, 0.5, 1, 2, 4, 8 and 24 hr (I.V.) and pre-dose, 0.25, 0.5, 1, 2, 4, 6, 8 and 24 hr (P.O.); • The blood samples were collected from a set of three mice at each time point in labeled micro centrifuge tube containing K2EDTA as anticoagulant; • Plasma samples were separated by centrifugation of whole blood and stored below −70° C. until bioanalysis; • All samples were processed for analysis by protein precipitation using acetonitrile (ACN) and analyzed with fit for purpose LC/MS/MS method (LLOQ: 2.02 ng/mL); • Pharmacokinetic parameters were calculated using the non-compartmental analysis tool of Phoenix WinNonlin (Version 6.3). Formulation: Animals in Group 1 were administered intravenously with Example B solution formulation in 20% propylene glycol, 50% of PEG 400 and 30% of 20% βCD in water via tail vein at a dose of 3 mg/kg. Animals in Group 2 were administered with oral solution formulation of Example B in 20% propylene glycol, 50% of PEG 400 and 30% of 20% HPβCD in water at a dose of 10 mg/kg; Dosing: 10 mg/kg P.O. and 3 mg/kg I.V.
• Species=male mouse; • Strain=Balb/c; • 18 male mice were divided into two groups Group 1 (3 mg/kg; I.V.), Group 2 (10 mg/kg; P.O.) with each group comprising nine mice; • Blood samples (approximately 60 μL) were collected from retro orbital plexus under light isoflurane anesthesia such that the samples were obtained at pre-dose, 0.08, 0.25, 0.5, 1, 2, 4, 8 and 24 hr (I.V.) and pre-dose, 0.25, 0.5, 1, 2, 4, 6, 8 and 24 hr (P.O.); • The blood samples were collected from a set of three mice at each time point in labeled micro centrifuge tube containing K2EDTA as anticoagulant; • Plasma samples were separated by centrifugation of whole blood and stored below −70° C. until bioanalysis; • All samples were processed for analysis by protein precipitation using acetonitrile (ACN) and analyzed with fit for purpose LC/MS/MS method (LLOQ: 2.47 ng/mL); • Pharmacokinetic parameters were calculated using the non-compartmental analysis tool of Phoenix WinNonlin (Version 6.3). Formulation: Animals in Group 1 were administered intravenously with Example G solution formulation in 5% NMP, 5% solutol HS-15 in 90% HPβCD solution (20% HPβCD in RO water) at 3 mg/kg dose. Animals in Group 2 were administered orally with 10 mg/kg solution formulation of Example G in 5% NMP, 5% solutol HS-15 in 90% HPβCD solution (20% HPβCD in RO water) Dosing: 10 mg/kg P.O. and 3 mg/kg I.V.
• Species=male mouse; • Strain=CD1; • n=3 male mice per time point per route; • Terminal blood sampling at 8 time points (5 min, 10 min, 0.5 hr, 1 hr, 3 hr, 6 hr, 8 hr and, 24 hr); • Collection of plasma, bio-analysis and report of pharmacokinetic parameters. Formulation: 10% DMSO, 90% Saline Dosing: 10 mg/kg P.O. and 5 mg/kg I.V.

[2] = in vivo, iv, male mouse, I.V. (5 mg/kg CD1: Example A, comparative; 3 mg/kg Balb/c: Examples B, G), mesylate salt, read-out: Clearance

| Structure (SMILES) | Fold IC50 p110δ/p110γ (p110δ/p110γ) | Fold IC50 p110β/p110α (p110β/p110α) | Fold IC50 p110β/p110γ (p110β/p110γ) | Fold IC50 p110δ/p110α (p110δ/p110α) | F ([1]; male, CD1, mouse, in vivo) | clearance ([1]; male, mouse, in vivo, iv) | clearance [1, 2] | F ([1]; male Balb/c mouse, PO 10 mg/kg vs IV 3 mg/kg, 20% propylene glycol, 50% PEG 400, 30% of 20% HPβCD in water, mesylate salt) | clearance ([1]; male, mouse, in vivo, summary table, mice, mesylate salts, read-out: Clearance) | F ([1]; male Balb/c mouse, PO 10 mg/kg vs IV 3 mg/kg, 5% NMP, 5% solutol HS-15 in 90% HPβCD solution, mesylate salt) |
| --- | --- | --- | --- | --- | --- | --- | --- | --- | --- | --- |
| c1cc(-c2nc(N3CCOCC3)c3oc4ncc(CN5CC6CC[C@H](C5)O6)cc4c3n2)c2cc[nH]c2c1 (stereo in doubt) [Example C, 4-(1H-Indol-4-yl)-6-(morpholin-4-yl)-12-{8-oxa-3-azabicyclo[3.2.1]octan-3-ylmethyl}-8-oxa-3,5,10-triazatricyclo[7.4.0.0^2,7]trideca-1(13),2(7),3,5,9,11-hexaene] | ** (** = >50×) | * (* = ≥10× ≥ 50×) | ** (** = >50×) | ** (** = >50×) | – | – | – | – | – | – |
| c1cc(-c2nc(N3CCOCC3)c3oc4ncc(CN5C[C@@H]6C[C@H]5CO6)cc4c3n2)c2cc[nH]c2c1 [Example A, 4-(1H-Indol-4-yl)-6-(morpholin-4-yl)-12-[(1S,4S)-2-oxa-5-azabicyclo[2.2.1]heptan-5-ylmethyl]-8-oxa-3,5,10-triazatricyclo[7.4.0.0^2,7]trideca-1(13),2(7),3,5,9,11-hexaene] | – | – | – | – | 73.77% | 21 mL/min/kg | – | – | – | – |
| c1cc(-c2nc(N3CCOCC3)c3oc4ncc(CN5CCC6(CC5)COC6)cc4c3n2)c2cc[nH]c2c1 [Example B, 4-(1H-Indol-4-yl)-6-(morpholin-4-yl)-12-{2-oxa-7-azaspiro[3.5]nonan-7-ylmethyl}-8-oxa-3,5,10-triazatricyclo[7.4.0.0^2,7]trideca-1(13),2(7),3,5,9,11-hexaene] | ** (** = >50×) | ** (** = >50×) | ** (** = >50×) | ** (** = >50×) | – | – | 33 mL/min/kg | 74% | 33 mL/min/kg | – |
| CN1CCC2(CCN(Cc3cnc4oc5c(N6CCOCC6)nc(-c6cccc7[nH]ccc67)nc5c4c3)CC2)C1 [Example D, 4-(1H-Indol-4-yl)-12-({2-methyl-2,8-diazaspiro[4.5]decan-8-yl}methyl)-6-(morpholin-4-yl)-8-oxa-3,5,10-triazatricyclo[7.4.0.0^2,7]trideca-1(13),2(7),3,5,9,11-hexaene] | ** (** = >50×) | ** (** = >50×) | ** (** = >50×) | ** (** = >50×) | – | – | – | – | – | – |
| CN1CCC2(CCN(Cc3cnc4oc5c(N6CCOCC6)nc(-c6cccc7[nH]ccc67)nc5c4c3)C2)C1 (stereo not drawn) [Example E, 4-(1H-Indol-4-yl)-12-({7-methyl-2,7-diazaspiro[4.4]nonan-2-yl}methyl)-6-(morpholin-4-yl)-8-oxa-3,5,10-triazatricyclo[7.4.0.0^2,7]trideca-1(13),2(7),3,5,9,11-hexaene] | ** (** = >50×) | ** (** = >50×) | ** (** = >50×) | ** (** = >50×) | – | – | – | – | – | – |
| c1cc(-c2nc(N3CCOCC3)c3oc4ncc(CN5CCC56COC6)cc4c3n2)c2cc[nH]c2c1 [Example G, 4-(1H-indol-4-yl)-6-(morpholin-4-yl)-12-{6-oxa-1-azaspiro[3.3]heptan-1-ylmethyl}-8-oxa-3,5,10-triazatricyclo[7.4.0.0^2,7]trideca-1(13),2(7),3,5,9,11-hexaene] | ** (** = >50×) | * (* = ≥10× ≥ 50×) | ** (** = >50×) | ** (** = >50×) | – | – | 26 mL/min/kg | – | – | 30% |
